In paper PMC6691788, “Design and synthesis of phthalazine-based compounds as potent anticancer agents with potential antiangiogenic activity via VEGFR-2 inhibition” (Journal of Enzyme Inhibition and Medicinal Chemistry, 2019):

Assays:
Test in all cases: NCI 60 cell panel SRB screen
Format in all cases: cell-based
NCI/ADR-RES = settings: Homo sapiens, single dose 10 μM, read-out: percent cell growth promotion
COLO 205 = settings: Homo sapiens; COLO 205, single dose 10 μM; read-out: percent cell growth promotion
A498 = settings: Homo sapiens; A498, single dose 10 μM; read-out: percent cell growth promotion
MDA-MB-468 = settings: Homo sapiens, MDA-MB-468; MDA-MBA-468, single dose 10 μM; read-out: percent cell growth promotion
Procedure: The human tumor cell lines of the cancer-screening panel were grown in RPMI 1640 medium containing 5% fetal bovine serum and […] L-glutamine. For a typical screening experiment, cells are inoculated into 96 well microtiter plates in 100 ml at plating densities ranging from 5000 to 40,000 cells/well depending on the doubling time of individual cell lines. After cell inoculation, the microtiter plates are incubated at 37 °C, 5% CO2, 95% air and 100%
relative humidity for 24 h prior to addition of experimental drugs. After 24 h, two plates of each cell line are fixed in situ with TCA, to represent a measurement of the cell population for each cell line at the time of drug addition (Tz). Experimental drugs are dissolved in dimethyl sulfoxide at 400-fold the desired final maximum test concentration and stored frozen prior to use. At the time of drug addition, an aliquot of frozen concentrate is thawed and diluted to twice the desired final maximum test concentration with complete medium containing […] Gentamicin. Additional four, 10-fold or ½log serial dilutions are made to provide a total of five drug concentrations plus control. Aliquots of […] of these different drug dilutions are added to the appropriate microtiter wells already containing 100 ml of medium, resulting in the required final drug concentrations. Following drug addition, the plates are incubated for an additional 48 h at 37 °C, 5% CO2, 95% air, and 100% relative humidity. For adherent cells, the assay is terminated by the addition of cold TCA. Cells are fixed in situ by the gentle addition of […] of cold 50% (w/v) TCA (final concentration,10% TCA) and incubated for 60 min at 4 °C. The supernatant is discarded, and the plates are washed five times with tap water and air dried. Sulforhodamine B (SRB) solution (100 ml) at 0.4% (w/v) in 1% acetic acid is added to each well, and plates are incubated for 10 min at room temperature. After staining, unbound dye is removed by washing five times with 1% acetic acid and the plates are air dried. Bound stain is subsequently dissolved with 10 μM trizma base, and the absorbance is read on an automated plate reader at a wavelength of 515 nm. For suspension cells, the methodology is the same except that the assay is terminated by fixing settled cells at the bottom of the wells by gently adding […] of 80% TCA (final concentration, 16% TCA).
Using the seven absorbance measurements [time zero, (Tz), control growth, (C), and test growth in the presence of drug at the five concentration levels (Ti)], the percentage growth is calculated at each of the drug concentrations levels. Percentage growth inhibition is calculated as: [(Ti -Tz)/(C - Tz)] x 100 for concentrations for which Ti>/ ¼ Tz and [(Ti -Tz) / Tz] x100 for concentrations for which Ti <Tz.
Three dose response parameters are calculated for each experimental agent. Growth inhibition of 50% (GI50) is calculated from [(Ti -Tz)/(C - Tz)] x 100 =50, which is the drug concentration resulting in a 50% reduction in the net protein increase (as measured by SRB staining) in control cells during the drug incubation. The drug concentration resulting in total growth inhibition (TGI) is calculated from Ti ¼ Tz. The LC50 (concentration of drug resulting in a 50% reduction in the measured protein at the end of the drug treatment as compared to that at the beginning) indicating a net loss of cells following treatment is calculated from [(Ti - Tz) / Tz] x100 = -50. Values are calculated for each of these three parameters if the level of activity is reached; however, if the effect is not reached or is exceeded, the value for that parameter is expressed as greater or less than the maximum or minimum concentration tested.

HCT-116 = settings: Homo sapiens; HCT-116, single dose 10 μM; read-out: percent cell growth promotion
MOLT-4 = settings: Homo sapiens; MOLT-4, single dose 10 μM; read-out: percent cell growth promotion
SF-268 = settings: Homo sapiens; SF-268, single dose 10 μM; read-out: percent cell growth promotion
U251 = settings: Homo sapiens, U-251; U251, single dose 10 μM; read-out: percent cell growth promotion
HCT-15 = settings: Homo sapiens; HCT-15, single dose 10 μM; read-out: percent cell growth promotion
A549/ATCC = settings: Homo sapiens, single dose 10 μM, read-out: percent cell growth promotion
SF-295 = settings: Homo sapiens; SF-295, single dose 10 μM; read-out: percent cell growth promotion
SK-MEL-28 = settings: Homo sapiens, SK-MEL-28, read-out: percent cell growth promotion
HOP-62 = settings: Homo sapiens; HOP-62, single dose 10 μM; read-out: percent cell growth promotion
NCI-H23 = settings: Homo sapiens; NCI-H23, single dose 10 μM; read-out: percent cell growth promotion
ACHN = settings: Homo sapiens, single dose 10 μM, read-out: percent cell growth promotion
K-562 = settings: Homo sapiens, K562; K-562, single dose 10 μM; read-out: percent cell growth promotion
UACC-257 = settings: Homo sapiens, UACC-257, read-out: percent cell growth promotion
SK-OV-3 = settings: Homo sapiens; SK-OV-3, single dose 10 μM; read-out: percent cell growth promotion
OVCAR-5 = settings: Homo sapiens; OVCAR-5, single dose 10 μM; read-out: percent cell growth promotion

| SMILES | activity at 10 µM (NCI/ADR-RES) [%] | activity at 10 µM (COLO 205) [%] | activity at 10 µM (A498) [%] | activity at 10 µM (MDA-MB-468) [%] | activity at 10 µM (HCT-116) [%] | activity at 10 µM (MOLT-4) [%] | activity at 10 µM (SF-268) [%] | activity at 10 µM (U251) [%] | activity at 10 µM (HCT-15) [%] | activity at 10 µM (A549/ATCC) [%] | activity at 10 µM (SF-295) [%] | activity at 10 µM (SK-MEL-28) [%] | activity at 10 µM (HOP-62) [%] | activity at 10 µM (NCI-H23) [%] | activity at 10 µM (ACHN) [%] | activity at 10 µM (K-562) [%] | activity at 10 µM (UACC-257) [%] | activity at 10 µM (SK-OV-3) [%] | activity at 10 µM (OVCAR-5) [%] |
| --- | --- | --- | --- | --- | --- | --- | --- | --- | --- | --- | --- | --- | --- | --- | --- | --- | --- | --- | --- |
| O=C(Nc1ccc(Nc2nncc3ccccc23)cc1)c1ccc(Cl)cc1 [Compound 5b, 4-Chloro-N-(4-(phthalazin-1-ylamino)phenyl)benzamide] | 103 | 104 | 98.7 | 101 | 100 | 97.3 | 98 | 99.5 | 109 | 101 | 102 | 114 | 91.8 | 98.5 | 112 | 102 | 93 | 87.3 |  |
| Cc1nnc(Nc2ccc(NC(=O)c3ccc(Cl)cc3)cc2)c2ccccc12 [Compound 5d, 4-Chloro-N-(4–(4-methylphthalazin-1-ylamino)phenyl)benzamide] | 96 | 90.3 | 88.9 | 104 | 92.2 | 83.5 | 90 | 81 | 101 | 97.9 | 105 | 106 | 88.8 | 95 | 111 | 101 | 97.4 | 83.5 | 98.5 |
| Cc1nnc(N2CCN(c3ccccn3)CC2)c2ccccc12 [Compound 8i, 1-Methyl-4–(4-(pyridin-2-yl)piperazin-1-yl)phthalazine] | 105 | 113 |  | 87.4 | 98.1 | 96.1 | 106 | 98.6 | 90.3 | 92.3 | 87.8 | 101 | 99.8 | 106 | 99.6 | 101 | 98.5 | 108 | 98.2 |
| O=C(Nc1ccc(Cl)cc1)Nc1ccc(Oc2nnc(Cl)c3ccccc23)cc1 [Compound 13b, 1–(4-Chlorophenyl)-3–(4-(4-chlorophthalazin-1-yloxy)phenyl)urea] | 83.6 | 106 | 103 | 84.9 | 97.8 |  | 85.8 | 86.7 | 94.1 | 78.2 | 91.6 | 106 | 93.3 | 89 | 80.7 | 93.2 | 89.9 | 88.6 | 113 |
